Test results published in patent US20120230951A1 (priority 2011, published 2012).
Counter-ions that a name gives are not always drawn.

Test system: GT-1a pRLuc H771b 75 S/I subgenomic replicon cell line
Experiment: HCV GT-1a replicon luciferase reporter assay
Assay type: cell-based
Conditions: Hepatitis C virus, GT1A, 72 h, read-out: GT-1a (IC50) (nM)
Excerpt: Determination of compounds HCV GT1b inhibitory replicon activity using the replicon luciferase reporter assay
The 2209-23 cell line was developed at Roche by stable transfection of the hepatoma cell line Huh-7 with a GT-1b Con1 subgenomic bicistronic replicon as previously described. Subgenomic replicon cell line was established in cured Huh7 cells, obtained from R. Bartenschlager (J. Virol. 2003 March; 77 (5):3007-19) The GT-1a H77 subgenomic replicon vector pRLuc H771b 75 S/I, was created by replacing the non structural region of the GT-1b Con1 subgenomic replicon by the one of the H77 strain, except for the first 75 amino acids of the NS3 protein that are from GT-1b Con1 strain. (J. Virol. 2001 77:5352-59) The GT-1a pRLuc H771b 75 S/I subgenomic replicon cell line was established in cured Huh7 cells, obtained from R. Bartenschlager. (J. Virol. 2003 March; 77 (5):3007-19)
All the subgenomic replicon cell lines were cultured in Dulbecco's Modified Eagle Medium (DMEM-Glutamax™-I; Invitrogen Cat #10569-010). The medium was supplemented with 10% Fetal Bovine Serum (Invitrogen Cat #10082-147), 1% penicillin/streptomycin (Mediatech Cat #30-002-CI) and 500 μg/ml of G418 (Mediatech Cat #30-234-CI). Cells were maintained at 37° C. in a humidified 5% CO2 atmosphere.
2209-23 cells were plated at a cell density of 5000 cells per well in 96 well plates (Becton Dickinson, Cat #35 3296). Cells were plated in 90 μl of Dulbecco's Modified Eagle Medium (DMEM-Glutamax™-I), (Invitrogen Cat #10569-010) medium was supplemented with 5% Fetal Bovine Serum (Invitrogen Cat #10082-147), 1% penicillin/streptomycin (Mediatech Cat #30-002-CI). The pRluc H771b 75 S/I cells were plated in 96-well plate at 3000 cells/well in DMEM-Glutamax™-I containing 5% FBS and 1% penicillin/streptomycin in 90 μl final volume. Cells were allowed to equilibrate for 24 hours at 37° C. and 5% CO2 at which time compounds were added. Compounds (or medium as a control) were added 24 hours post-plating in 3 fold dilutions at a final DMSO concentration of 1% in 10 ul volume. Renilla luciferase reporter signal was read 72 hours after addition of compounds using the Renilla Luciferase Assay System (Promega, cat #E2820). EC50 values were defined as the compound concentration at which a 50% reduction in the levels of renilla luciferase reporter was observed as compared to control samples in the absence of compound and was determined by non-linear fitting of compound dose-response data. The EC50 was approximated if maximum percentage inhibition was less than 90% and more than 70%.

Row | SMILES | IC50 [nM]
1 | CC[C@H](C)[C@H](NC(=O)OC)C(=O)N1CCC[C@H]1c1ncc(-c2ccc3nc(-c4ccc(-c5cnc([C@@H]6Cc7cccc8c7N6C(=O)[C@@H](NC(=O)OC)CC8)[nH]5)cc4)cnc3c2)[nH]1 [Compound I-53, ((2S,5S)-2-{5-[4-(6-{2-[(S)-1-((2S,3S)-2-Methoxycarbonylamino-3-methyl-pentanoyl)-pyrrolidin-2-yl]-3H-imidazol-4-yl}-quinoxalin-2-yl)-phenyl]-1H-imidazol-2-yl}-4-oxo-1,2,4,5,6,7-hexahydroazepino[3,2,1-hi]indol-5yl)-carbamic acid methyl ester] | 1.36
2 | COC(=O)N[C@H]1CCc2cccc3c2N(C1=O)[C@H](c1ncc(-c2ccc(-c4ccc(-c5cnc(C6C7CC7CN6C(=O)[C@H](NC(=O)OC)c6ccccc6)[nH]5)cc4)cc2)[nH]1)C3 (stereo partly drawn) [Compound I-65, {(2S,5S)-2-[5-(4′-{2-[(S)-3-((R)-2-Methoxycarbonylamino-2-phenyl-acetyl)-3-aza-bicyclo[3.1.0]hex-2-yl]-3H-imidazol-4-yl}-biphenyl-4-yl)-1H-imidazol-2-yl]-4-oxo-1,2,4,5,6,7-hexahydro-azepino[3,2,1-hi]indol-5-yl}-carbamic acid methyl ester] | 67.2
3 | CC[C@H](C)[C@H](NC(=O)OC)C(=O)N1CC(F)(F)C[C@H]1c1ncc(-c2cnc(-c3ccc(-c4cnc([C@@H]5Cc6cccc7c6N5C(=O)[C@@H](NC(=O)OC)CC7)[nH]4)cc3)nc2)[nH]1 [Compound I-58, ((1S,2S)-1-{(S)-4,4-Difluoro-2-[5-(2-{4-[2-((2S,5S)-5-methoxycarbonylamino-4-oxo-1,2,4,5,6,7-hexahydro-azepino[3,2,1-hi]indol-2-yl)-1H-imidazol-4-yl]-phenyl}-pyrimidin-5-yl)-1H-imidazol-2-yl]-pyrrolidine-1-carbonyl}-2-methyl-butyl)-carbamic acid methyl ester] | 26.1
4 | COC(=O)N[C@H]1CCc2cccc3c2N(C1=O)[C@H](c1ncc(-c2ccc(-c4ccc(-c5cnc([C@@H]6CCCN6C(=O)[C@@H](NC(=O)OC)[C@@H](C)O)[nH]5)cc4)cc2)[nH]1)C3 (stereo in doubt) [Compound I-50, {(2S,5S)-2-[5-(4-{2-[(S)-1-((S)-3-Hydroxy-2-methoxycarbonylamino-butyl)-pyrolidin-2-yl]-3H-imidazol-4-yl}-biphenyl-4-yl)-1H-imidazol-2-yl]-4-oxo-1,2,4,5,6,7-hexahydro-azepino[3,2,1-hi]indol-5-yl}-carbamic acid methyl ester] | 6.62
5 | COC(=O)N[C@H]1CCc2cccc3c2N(C1=O)[C@H](c1ncc(-c2ccc4nc(-c5ccc(-c6cnc([C@@H]7CCCN7C(=O)[C@@H](NC(=O)OC)C(C)C)[nH]6)cc5)ccc4c2)[nH]1)C3 [Compound I-22, ((2S,5S)-2-{5-[2-(4-{2-[(S)-1-((S)-2-Methoxycarbonylamino-3-methyl-butyryl)-pyrrolidin-2-yl]-1H-imidazol-4-yl}-phenyl)-quinolin-6-yl]-1H-imidazol-2-yl}-4-oxo-1,2,4,5,6,7-hexahydro-azepino[3,2,1-hi]indol-5-yl)-carbamic acid methyl ester trifluroacetic acid, trifluoroacetic acid salt] | 1.45
6 | CC[C@H](C)[C@H](NC(=O)OC)C(=O)N1CCC[C@H]1c1ncc(-c2ccc(-c3cnc4cc(-c5cnc([C@@H]6Cc7cccc8c7N6C(=O)[C@@H](NC(=O)OC)CC8)[nH]5)ccc4n3)cc2)[nH]1 [Compound I-56, ((2S,5S)-2-{5-[2-(4-{2-[(S)-1-((2S,3S)-2-Methoxycarbonylamino-3 methyl-pentanoyl)-pyrrolidin-2-yl]-3H-imidazol-4-yl}-phenyl)quinoxalin-6-yl]-1H-imidazol-2-yl}-4-oxo-1,2,4,5,6,7-hexahydro-azepino[3,2,1-hi]indol-5-yl)-carbamic acid methyl ester] | 3
7 | CC[C@H](NC(=O)OC)C(=O)N1CCC[C@H]1c1ncc(-c2ccc(-c3ccc(-c4cnc([C@@H]5Cc6cccc7c6N5C(=O)[C@@H](NC(=O)OC)CC7)[nH]4)cc3)cc2)[nH]1 [Compound I-45] | 17.1
8 | COC(=O)N[C@H]1CCc2cccc3c2N(C1=O)[C@H](c1ncc(-c2cnc(-c4ccc5cc(-c6cnc([C@@H]7CCCN7C(=O)[C@@H](NC(=O)OC)C(C)C)[nH]6)ccc5c4)nc2)[nH]1)C3 [Compound I-17, ((2S,5S)-2-{5-[2-(6-{2-[(S)-1-((S)-2-Methoxycarbonylamino-3-methyl-butyryl)-pyrrolidin-2-yl]-3H-imidazol-4-yl}-naphthalen-2-yl)-pyrimidin-5-yl]-1H-imidazol-2-yl}-4-oxo-1,2,4,5,6,7-hexahydro-azepino[3,2,1-hi]indol-5-yl)-carbamic acid methyl ester] | 3.2
9 | COC(=O)N[C@H]1CCc2cccc3c2N(C1=O)[C@H](c1ncc(-c2cnc(-c4ccc(-c5cnc([C@@H]6CCCN6C(=O)[C@@H](NC(=O)OC)C(C)C)[nH]5)cc4)nc2)[nH]1)C3 [Compound I-15, ((2S,5S)-2-{5-[2-(4-{2-[(S)-1-((S)-2-Methoxycarbonylamino-3-methyl-butyryl)-pyrrolidin-2-yl]-3H-imidazol-4-yl}-phenyl)-pyrimidin-5-yl]-1H-imidazol-2-yl}-4-oxo-1,2,4,5,6,7-hexahydro-azepino[3,2,1-hi]indol-5-yl)-carbamic acid methyl ester] | 13.4
10 | COC(=O)N[C@H]1CCc2cccc3c2N(C1=O)[C@H](c1ncc(-c2cnc4cc(-c5ccc(-c6cnc([C@@H]7CCCN7C(=O)[C@@H](NC(=O)OC)C(C)C)[nH]6)cc5)ccc4c2)[nH]1)C3 [Compound I-18, ((2S,5S)-2-{5-[7-(4-{2-[(S)-1-((S)-2-Methoxycarbonylamino-3-methyl-butyryl)-pyrrolidin-2-yl]-3H-imidazol-4-yl}-phenyl)-quinolin-3-yl]-1H-imidazol-2-yl}-4-oxo-1,2,4,5,6,7-hexahydro-azepino[3,2,1-hi]indol-5-yl)-carbamic acid methyl ester trifluoacetic acid salt] | 21.6
11 | COC(=O)N[C@H]1CCc2cc(C(N)=O)cc3c2N(C1=O)[C@H](c1ncc(-c2ccc(-c4ccc(-c5cnc([C@H]6CCCN6C(=O)[C@H](NC(=O)OC)C(C)C)[nH]5)cc4)cc2)[nH]1)C3 [Compound I-27, {(2S,5S)-9-Carbamoyl-2-[5-(4′-{2-[(R)-1-((R)-2-methoxycarbonylamino-3-methyl-butyryl)-pyrrolidin-2-yl]-3H-imidazol-4-yl}-biphenyl-4-yl)-1H-imidazol-2-yl]-4-oxo-1,2,4,5,6,7-hexahydro-azepino[3,2,1-hi]indol-5-yl}-carbamic acid methyl ester] | 5.08
12 | COC(=O)N[C@H]1CCc2cccc3c2N(C1=O)[C@H](c1ncc(-c2ccc(-c4ccc(-c5cnc([C@@H]6CCCN6C(=O)C6(NC(=O)OC)COC6)[nH]5)cc4)cc2)[nH]1)C3 [Compound I-47] | 110
13 | COC(=O)N[C@H]1CCc2cccc3c2N(C1=O)[C@H](c1nc2ccc(-c4ccc(-c5ccc(-c6cnc([C@@H]7CCCN7C(=O)[C@@H](NC(=O)OC)C(C)C)[nH]6)cc5)nc4)cc2[nH]1)C3 [Compound I-12, ((2S,5S)-2-{6-[6-(4-{2-[(S)-1-((S)-2-Methoxycarbonylamino-3-methyl-butyryl)-pyrrolidin-2-yl]-3H-imidazol-4-yl}-phenyl)-pyridin-3-yl]-1H-benzoimidazol-2-yl}-4-oxo-1,2,4,5,6,7-hexahydro-azepino[3,2,1-hi]indol-5-yl)-carbamic acid methyl ester] | 18.6
